Here are results for one compound from ChEMBL document CHEMBL2380299, “Sungsanpin, a lasso peptide from a deep-sea streptomycete” (J Nat Prod, 2013).

Data set [1] deals with A549. The data set is described as follows: Antiinvasive activity against human A549 cells assessed as MMP-9 mRNA level after 24 hrs by RT-PCR analysis. Type of data set: functional, cell-based.
Data set [2] relates to A549. The data set is described as follows: Antiinvasive activity against human A549 cells assessed as MMP-2 mRNA level after 24 hrs by RT-PCR analysis. The data set is classed as functional, cell-based.
For data set [3], the system named is A549. The data set is described as follows: Antiinvasive activity against human A549 cells assessed as increase in TIMP-2 mRNA level after 24 hrs by RT-PCR analysis. The data set is classed as functional, cell-based.
Data set [4] concerns A549. The data set is described as follows: Antiinvasive activity against human A549 cells assessed as increase in TIMP-1 mRNA level after 24 hrs by RT-PCR analysis. The data set is classed as functional, cell-based.
Data set [5] has as its system A549. The data set is described as follows: Antiinvasive activity against human A549 cells at 50 uM after 24 hrs by micro plate reader analysis relative to control. Type of data set: functional.
Data set [6] has as its system A549. The data set is described as follows: Antiinvasive activity against human A549 cells at 5 uM after 24 hrs by micro plate reader analysis relative to control. Type of data set: functional.
For data set [7], the system named is A549. The data set is described as follows: Cytotoxicity against human A549 cells up to 50 uM after 24 hrs by CCK-8 assay. Type of data set: cell-based. To be noted: a549, 24 h.

Activity calls are given as the source filed them. No cut-off for these calls is given here. Where a SMILES comes first, the peptide text is derived from it. Bridges are numbered along the chain shown (N, C = ends).

Take `CC[C@H](C)[C@@H]1NC(=O)[C@@H]2CCCN2C(=O)[C@H](CCCCN)NC(=O)[C@H](CO)NC(=O)CNC(=O)[C@H](Cc2ccccc2)NC(=O)CNC(=O)C[C@@H](C(=O)N[C@@H](CO)C(=O)N[C@@H](Cc2ccccc2)C(=O)NCC(=O)N[C@@H](CC(C)C)C(=O)N[C@@H](CO)C(=O)N[C@@H](Cc2c[nH]c3ccccc23)C(=O)N[C@@H](CC(C)C)C(=O)O)NC1=O` [SUNGSANPIN] (GFGSKPIDSFGLSWL-OH; lactam N-8): the outcome in the data set with A549 [1] and in the data set on A549 [2] was inactive. For the same compound, the Activity result was “Dose-dependent effect” in the data set on A549 [3]; “Dose-dependent effect” in the data set on A549 [4]; 47% in the data set on A549 [5]; 25% with A549 [6]; “Non-toxic” in the data set with A549 [7].
